Assay results as given in patent US20180235912A1, “PHARMACEUTICAL COMPOSITION FOR PREVENTING OR TREATING AUTOIMMUNE DISEASES COMPRISING THIOUREA DERIVATIVE” (SEOUL NATIONAL UNIVERSITY R & DB FOUNDATION, priority 2015, published 2018).

Columns and labels:
[1] = system: type II collagen-induced arthritis (CIA); assay: Type II collagen-induced arthritis (CIA) animal model; assay type: in vivo, mouse; conditions: DBA male mice
Protocol: 6-week-old DBA male mice were inoculated with bovine CII (Chondrex Inc.) emulsified in CFA (Chondrex Inc.), and re-inoculated after 15 days to induce rheumatoid arthritis. After the first administration, JC1-40 dissolved in 0.5% carboxymethyl cellulose (CMC) was continuously orally administered three times a week to the mice at a dose of 10 mg/kg. A 0.5% CMC vehicle and 5 mg/kg of Enbrel as the positive control were administered to the other groups in the same manner. The ratio of the population of the mice developing an arthritic disease was calculated as incidence, and the arthritic tissues were pathophysiologically examined to calculate a degree of progression of the disease as a score and compare conditions of the rheumatoid arthritis disease between the groups. The clinical scores were evaluated using a clinical scoring system which scores the swelling and redness in feet or tail regions by observing arthritis lesions of mice with the naked eye every day to check a degree of progression of inflammatory diseases in the joints.

[2] = system: human peripheral blood mononuclear cells (PBMCs); assay: Th17 and Treg differentiation of CD4+ cells from PBMCs, flow cytometry; assay type: cell-based; conditions: human CD4+ cells from PBMCs, 10, 20 and 40 μM, Th17 conditions 3 days
Protocol: CD4+ cells were isolated from peripheral blood mononuclear cells (PBMCs) of a healthy human, pre-treated with a varying concentration (10, 20, and 40 μM) of JC1-40, and then cultured for 3 days under Th17 differentiation conditions (including 0.5 μg/mL of anti-CD3, 0.5 μg/mL of anti-CD28, 10 μg/mL of anti-IFN-γ, 10 μg/mL of anti-IL-4, 20 ng/mL of IL-6, and 20 ng/mL of IL-1β). The expression of Th17 (anti IL-17 PE) and Treg (Anti Foxp3-FITC) in these cells was confirmed using flow cytometry. Also, an amount of IL-17 in these supernatants was measured using ELISA.

EL4 cell line [3] = assay: RORα and IL-17 transcription in T cell line under Th17 differentiation conditions, real-time PCR; assay type: cell-based, mouse; conditions: EL4, 20 μM pre-treatment 24 hours, Th17 differentiation conditions 48 hours
Protocol: A mouse T cell EL4 cell line (5×10^5 cells/well) was seeded in a 24-well culture dish, pre-treated with 20 μM JC1-40 for 24 hours, and cultured for a day in a RPMI 1640 medium supplemented with 10% FBS. The EL4 cell line was kept at 37° C. in a thermo-hygrostat chamber in which 5% CO2 and 95% air were maintained. After the culturing, the cells were cultured for 48 hours under Th17 differentiation conditions (including 0.5 μg/mL of an anti-CD3 antibody, 1 μg/mL of an anti-CD28 antibody, 2 ng/mL of TGF-β, 20 ng/mL of IL-6, 10 μg/mL of anti-IL-4, and 10 μg/mL of anti-IFN-γ). Expression levels of RORα, which is a JC1-40-activated nuclear receptor, and IL-17, which is an inflammatory marker inducing rheumatoid arthritis, were measured using a real-time PCR (i.e., real-time reverse transcriptase-polymerase chain reaction; quantitative polymerase chain reaction) assay.

EL4 cell line [4] = assay: Foxp3 expression in T cell line, immunostaining and confocal microscopy; assay type: cell-based, mouse; conditions: EL4, 20 μM, Th17 differentiation conditions, confocal microscopy
[5] = system: CD4+ T cells from spleens; assay: IL-17 secretion of spleen T cells, sandwich ELISA of culture supernatant; assay type: cell-based; conditions: mouse spleen CD4+ T cells, Th17 conditions
Protocol: CD4+ T cells were isolated from the spleens of 7 to 8-week-old C57BL/6 male mice, seeded in a 48-well dish at a density of 5×10^5 cells/well, pre-treated with a varying concentration of JC1-40 (0.1, 0.5, 10, and 50 μM) for 24 hours, and then cultured for a day in an RPMI1640 medium supplemented with 10% fetal bovine serum (FBS). After the culturing, the cells were cultured for 3 days under Th17 differentiation conditions (including 0.5 μg/mL of an anti-CD3 antibody, 1 μg/mL of an anti-CD28 antibody, 2 ng/mL of TGF-β, 20 ng/mL of IL-6, 10 μg/mL of anti-IL-4, and 10 μg/mL of anti-IFN-γ). Thereafter, the cells were collected, washed with a FACS buffer for flow cytometry, and then blocked at 4° C. for 15 minutes to inhibit non-specific binding. As a cell surface marker, an antibody against CD4 (anti-CD4-PerCP) was added thereto, and reacted at 4° C. for 30 minutes, and the resulting reaction mixture was washed with a perm wash buffer. […] A change of the stained cells was analyzed using flow cytometry.
In addition, a culture supernatant of the JC1-40-treated Th17 cells was collected to determine an amount of IL-17 using a sandwich ELISA method. […] Then, a PNPP/DEA solution was added thereto, and developed color, and the optical density was then measured at a wavelength of 405 nm.

peritoneal macrophages [6] = assay: M1 differentiation of intraperitoneal macrophages, PE-CD80 flow cytometry; assay type: cell-based; conditions: mouse intraperitoneal macrophages, 10 ng/mL LPS, 20 μM, 24 hours
Protocol: (§1) Peritoneal macrophages of 7 to 8-week-old C57BL/6 male mice were isolated, seeded in a 24-well dish at a density of 1×10^6 cells/well, and then cultured for 4 hours in an RPMI1640 medium supplemented with 10% fetal bovine serum (FBS). A peritoneal macrophage culture broth was treated with each of 10 ng/mL of LPS and 20 μM JC1-40 or JC1-42, as indicated herein, for 24 hours. In this case, the peritoneal macrophages were kept at 37° C. in a thermo-hygrostat chamber in which 5% CO2 and 95% air were maintained.
Further, a PE-CD80 antibody (eBioscience), which is a M1 marker for recognizing a change of M1 cells, was incubated in these cells for 30 minutes, and then subjected to flow cytometry. As a result, it was confirmed that the M1 differentiation was suppressed when the macrophages were treated with JC1-40, as shown in FIG. 3.

[7] = system: CD4+ T cells from spleens; assay: Th17 differentiation of primarily cultured spleen T cells, flow cytometry; assay type: cell-based; conditions: mouse spleen CD4+ T cells, 0.1, 0.5, 10 and 50 μM, Th17 conditions 3 days
Protocol: CD4+ T cells were isolated from the spleens of 7 to 8-week-old C57BL/6 male mice, seeded in a 48-well dish at a density of 5×10^5 cells/well, pre-treated with a varying concentration of JC1-40 (0.1, 0.5, 10, and 50 μM) for 24 hours, and then cultured for a day in an RPMI1640 medium supplemented with 10% fetal bovine serum (FBS). After the culturing, the cells were cultured for 3 days under Th17 differentiation conditions (including 0.5 μg/mL of an anti-CD3 antibody, 1 μg/mL of an anti-CD28 antibody, 2 ng/mL of TGF-β, 20 ng/mL of IL-6, 10 μg/mL of anti-IL-4, and 10 μg/mL of anti-IFN-γ). Thereafter, the cells were collected, washed with a FACS buffer for flow cytometry, and then blocked at 4° C. for 15 minutes to inhibit non-specific binding. As a cell surface marker, an antibody against CD4 (anti-CD4-PerCP) was added thereto, and reacted at 4° C. for 30 minutes, and the resulting reaction mixture was washed with a perm wash buffer. After a Cytofix/Cytoperm process was performed at 4° C. for 20 minutes, the mixture was washed with a perm wash buffer. Anti-IL-17 PE was added thereto, and reacted at 4° C. for 30 minutes, and the resulting reaction mixture was washed with a perm wash buffer. A change of the stained cells was analyzed using flow cytometry.

[8] = system: Raw 264.7 macrophage cell line; assay: Transcription of inflammatory genes in LPS-treated macrophage cell line, real-time PCR; assay type: cell-based, mouse; conditions: Raw 264.7, 50 ng/mL LPS, 20 μM, 24 hours
Protocol: A mouse macrophage cell line Raw 264.7 (ATCC TIB-71) was purchased from the American Type Culture Collection (ATCC). Raw 264.7 cells (2×10^5 cells/well) were seeded in a 6-well culture dish, and cultured for a day in a Dulbecco's modified Eagle's medium (DMEM) supplemented with 10% fetal bovine serum (FBS). The Raw 264.7 cells were kept at 37° C. in a thermo-hygrostat chamber in which 5% CO2 and 95% air were maintained. After the culturing, the cells were treated with 50 ng/mL of lipopolysaccharides (LPS) and 20 μM JC1-40 for 24 hours. Then, mRNA expression levels of the inflammatory markers, such as TNF-α, NOS2, IL-1β, and IL-6, which induce rheumatoid arthritis, were measured using a real-time PCR (i.e., real-time reverse transcriptase-polymerase chain reaction; quantitative polymerase chain reaction) assay.

peritoneal macrophages [9] = assay: Transcription of M2 anti-inflammatory genes in primarily cultured intraperitoneal macrophages, real-time PCR; assay type: cell-based; conditions: mouse intraperitoneal macrophages, 20 ng/mL IL-4, 20 μM, 24 hours
Protocol: as §1, with “of 20” for “of 10”, “of IL-4” for “of LPS”, “hours. Thereafter, mRNA expression levels of the M2 anti-inflammatory markers, such as IL-10, Arg1, Retnla, and CD206, […], were measured using a real-time PCR (i.e., real-time reverse transcriptase-polymerase chain reaction; quantitative polymerase chain reaction) assay.” for “hours.”

[10] = system: osteoclast precursor differentiated from human PBMCs; assay: Osteoclast differentiation-related factor expression in osteoclast precursor from PBMCs, real-time PCR; assay type: cell-based; conditions: M-CSF 25 ng/mL, RANKL 30 ng/mL, 10, 20, 40 μM
Protocol: PBMCs of a healthy human were isolated, stimulated with M-CSF (25 ng/mL) for 3 days to induce differentiation into an osteoclast precursor. After 3 days, a medium was replaced with a fresh one, and the cells were stimulated with varying concentrations of M-CSF (25 ng/mL), RANKL (30 ng/mL), and JC1-40 (10, 20, 40 μM), and cultured for 3 days. After the medium was replaced every 3 days, the same stimulus was applied to the cells while a differentiation state of the cells was observed.
RNA was isolated from the differentiated cells, and synthesized into cDNA. Thereafter, a change in mRNA expression levels of the osteoclast differentiation-related factors, Cathepsin K and TRAP, was analyzed using real-time PCR.

peritoneal macrophages [11] = assay: Transcription of inflammatory genes in primarily cultured intraperitoneal macrophages, real-time PCR; assay type: cell-based; conditions: mouse intraperitoneal macrophages, 10 ng/mL LPS, 20 μM, 24 hours
Protocol: as §1
First, mRNA expression levels of the inflammatory markers, such as TNF-α, NOS2, IL-1β, and IL-6, which induce rheumatoid arthritis, were measured using a real-time PCR (i.e., real-time reverse transcriptase-polymerase chain reaction; quantitative polymerase chain reaction) assay. As a result, it can be seen that the mRNA levels of TNF-α, NOS2, IL-1β and IL-6, which are involved in the induction of inflammation, in the intraperitoneal macrophages were reduced when the cells were treated with JC1-40 or JC1-42, as shown in FIG. 2.

[12] = 10 mg/kg orally three times a week

## CNC(=S)NCc1ccc(OCc2ccccc2)cc1 [JC1-40, 1-(4-benzyloxy-benzyl)-3-methyl-thiourea]
[1]; [12]
  arthritis incidence: suppressed
  arthritis scores: suppressed
[1]; 10 mg/kg orally vs 5 mg/kg Enbrel
  effect compared to Enbrel (positive control): superior effect
[2]
  amount of (FOXP3 positive) cells differentiated into Treg: increased
  amount of (IL-17 positive) T cells differentiated into Th17: decreased
EL4 cell line [3]
  transcription level of IL-17: decreased
  transcription level of the nuclear receptor RORα: increased
EL4 cell line [4]
  expression level of Foxp3: increased
[5]
  amount of secreted IL-17 protein in the culture broth: reduced
Peritoneal macrophages [6]
  M1 differentiation (CD80 marker): suppressed
[7]
  amount of IL-17 positive cells differentiated into Th17: decreased
[8]
  transcription level of IL-1β: reduced
  transcription level of IL-6: reduced
  transcription level of NOS2: reduced
  transcription level of TNF-α: reduced
Peritoneal macrophages [9]
  transcription level of Arg1: increased
  transcription level of CD206: increased
  transcription level of IL-10: increased
  transcription level of Retnla: increased
[10]
  expression of osteoclast differentiation-related factors (Cathepsin K and TRAP mRNA): significantly reduced
Peritoneal macrophages [11]
  mRNA level of IL-1β: reduced
  mRNA level of IL-6: reduced
  mRNA level of NOS2: reduced
  mRNA level of TNF-α: reduced

## CNC(=S)NCc1ccc(Oc2ccccc2)cc1 [JC1-42, 1-(4-phenoxy-benzyl)-3-methyl-thiourea]
Peritoneal macrophages [9]
  transcription level of Arg1: increased
  transcription level of CD206: increased
  transcription level of IL-10: increased
  transcription level of Retnla: increased
Peritoneal macrophages [11]
  mRNA level of IL-1β: reduced
  mRNA level of IL-6: reduced
  mRNA level of NOS2: reduced
  mRNA level of TNF-α: reduced
